In patent US8648038B2, “(2-aryloxyacetylamino)phenylpropionic acid derivatives, processes for preparation thereof and use thereof as medicaments” (Sanofi, priority 2010, dated 2014) one finds EC50 data, which are given here for twelve compounds.

In this test the target is T1, GPR40 (Rattus norvegicus, UniProt Q8K3T4).
T1 construct: expressed in transfected cells; host or cells: HEK293
Put plainly: In vitro FLIPR assay with recombinant HEK293 cells which express the GPCR GPR40 (intracellular Ca2+). Conditions: recombinant HEK293 cells expressing GPR40; Fluo-4 Ca2+ signal; 100% = 10 μM linoleic acid. It is filed as cell-based. Here is the method:
In Vitro FLIPR Assay with Recombinant Cells which Express the GPCR GPR40
Function-testing assays were performed by means of the FLIPR technique (“Fluorescence Imaging Plate Reader”, Molecular Devices Corp.). For this purpose, agonist-induced changes were determined in the intracellular concentration of Ca^2+ in recombinant HEK293 cells which expressed the GPCR GPR40.
For the studies, cells were sown into 96-well microtiter plates (60 000 cells/well) and left to grow overnight. The medium was removed and the cells were incubated in buffer which contains the fluorescent dye Fluo-4. After this loading with dye, the cells were washed, test substance was added and changes were measured in the intracellular Ca^2+ concentration in the FLIPR instrument. Results were presented as the percentage change relative to the control (0%: no test substance added; 100%: 10 μM reference agonist linoleic acid added) and used to calculate dose/effect curves, and EC50 values were determined.

T1 sequence (Q8K3T4 whole entry): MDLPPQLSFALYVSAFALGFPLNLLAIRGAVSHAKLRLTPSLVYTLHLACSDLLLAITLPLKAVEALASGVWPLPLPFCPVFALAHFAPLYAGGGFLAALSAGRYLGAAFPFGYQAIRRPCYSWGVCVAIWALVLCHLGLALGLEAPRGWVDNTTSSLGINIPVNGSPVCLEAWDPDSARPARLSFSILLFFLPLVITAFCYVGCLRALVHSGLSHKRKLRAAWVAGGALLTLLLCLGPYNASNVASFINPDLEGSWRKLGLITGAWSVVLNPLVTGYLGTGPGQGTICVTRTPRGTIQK

In general, EC50 refers to the concentration at which the effect is half-maximal. `CC#CC(CC(=O)O)c1ccc(NC(=O)C(C)Oc2cc(C)ccc2C(C)C)cc1` (stereo not drawn) [Example 4]: the half-maximal effective concentration (EC50) was 0.094 µM.

As to `CC#CC(CC(=O)O)c1ccc(NC(=O)C(C)Oc2cc(C(C)C)ccc2C)cc1` (stereo not drawn) [Example 5], the EC50 was determined as 0.176 µM.

For the compound `CC#CC(CC(=O)O)c1ccc(NC(=O)C(C)Oc2cccc(C(C)C)c2)cc1` (stereo not drawn) [Example 6, 3-{4-[2-(3-Isopropylphenoxy)propionylamino]phenyl}hex-4-ynoic acid], the EC50 came to 0.071 µM.

Turning to `CC#CC(CC(=O)O)c1ccc(NC(=O)C(C)(C)Oc2ccc(C(C)C)cc2Br)cc1` (stereo not drawn) [Example 8], the EC50 amounted to 1.14 µM.

For `CC#CC(CC(=O)O)c1ccc(NC(=O)C(Oc2ccc(C(C)C)cc2Br)C(C)C)cc1` (stereo not drawn) [Example 9], the concentration for a half-maximal effect (EC50) was 0.553 µM.

Regarding `CC#CC(CC(=O)O)c1ccc(NC(=O)C(C)(C)Oc2cccc(C(C)C)c2)cc1` (stereo not drawn) [Example 16], the half-maximal effective concentration (EC50) was determined as 0.187 µM.

`CC#CC(CC(=O)O)c1ccc(NC(=O)C(C)(C)Oc2ccc(C(C)(C)C)cc2Br)cc1` (stereo not drawn) [Example 22]: the EC50 was 4.46 µM.

Turning to `COC(CC(=O)O)c1ccc(NC(=O)C(C)Oc2cc(C(C)C)ccc2C)cc1` (stereo not drawn) [Example 39], the EC50 worked out at 5.08 µM.

Turning to `COC(CC(=O)O)c1ccc(NC(=O)C(C)Oc2cc(C)ccc2C(C)C)cc1` (stereo not drawn) [Example 40, 3-{4-[2-(2-Isopropyl-5-methylphenoxy)propionylamino]phenyl}-3-methoxypropionic Acid], the EC50 came to 2.13 µM.

As to `COC(CC(=O)O)c1ccc(NC(=O)C(C)Oc2cccc(C(C)(C)C)c2)cc1` (stereo not drawn) [Example 42], the EC50 was 10.7 µM.

Turning to `COC(CC(=O)O)c1ccc(NC(=O)C(C)(C)Oc2ccc(Cl)cc2Cl)cc1` (stereo not drawn) [Example 43], the EC50 was found to be 20.8 µM.

Regarding `COC(CC(=O)O)c1ccc(NC(=O)C(C)(C)Oc2cccc(C(C)C)c2)cc1` (stereo not drawn) [Example 47], the 50% effective concentration (EC50) was determined as 1.16 µM.
